Patent EP4786487A1, “PEPTIDE” (Peptidream Inc, priority 2023, dated 2025)
Starred links: 1 amine or outer side, 2 acyl side, 3 side chain; linkers in the order of their positions; H or OH if unused. Positions of bridges follow the written chain, without caps; N, C: chain ends. Non-standard residues stand in square brackets, D forms with d. Residues, ends and D or L forms follow the SMILES beside them. *: point of attachment. Phe(4-(4-pyridyl)) = N[C@@H](Cc1ccc(-c2ccncc2)cc1)C(=O)O; Phe(3-OCH2COOH) = N[C@@H](Cc1cccc(OCC(=O)O)c1)C(=O)O; Phe(4-COOH) = N[C@@H](Cc1ccc(C(=O)O)cc1)C(=O)O; Trp(7-aza) = N[C@@H](Cc1c[nH]c2ncccc12)C(=O)O; Bip = N[C@@H](Cc1ccc(-c2ccccc2)cc1)C(=O)O; Gly(N(CH2)3COOH) = O=C(O)CCCNCC(=O)O; NMeY = CN[C@@H](Cc1ccc(O)cc1)C(=O)O; X1 = CCCCCCC[C@H](N[*:1])C(=O)[*:2]; Gly(cPent) = N[C@H](C(=O)O)C1CCCC1; NMeF = CN[C@@H](Cc1ccccc1)C(=O)O; Ahp(2) = CCCCC[C@H](N)C(=O)O; Carboxymethyl = O=C(O)C*; NMeA = CN[C@@H](C)C(=O)O; Sar = CNCC(=O)O

Experiments:
Format in all cases: cell-based
[1] = molecular target: T1, GDF-11 (Homo sapiens, UniProt O95390); assay: Reporter gene assay for myostatin signaling in HepG2 cell line, Evaluation Procedure (1), GDF-11 inhibition; conditions: Method A: GDF-11 10 ng/mL; read-out: IC50 (Luciferase) GDF-11 HepG2
T1 construct: purchased R&D systems 1958-GD-G8/CF
T1 sequence (O95390 299-407): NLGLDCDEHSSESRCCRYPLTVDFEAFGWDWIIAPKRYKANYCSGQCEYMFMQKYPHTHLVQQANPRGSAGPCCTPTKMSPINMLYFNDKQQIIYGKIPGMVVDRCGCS
Summary of the method: (§1)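 IC50 derived from One-Glo luciferase luminescence after 20–24 h at 37 °C. Peptides titrated 4-fold at 0.006–100 nmol/L against myostatin or 0.12–2000 nmol/L against GDF-11 in HepG2 cells carrying a transfected CAGA12-luciferase reporter, kept in 0.1% BSA EMEM.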

[2] = molecular target: T2, Myostatin (Homo sapiens, UniProt O14793); assay: Reporter gene assay for myostatin signaling in HepG2 cell line, Evaluation Procedure (1), myostatin inhibition; conditions: Method A: Myostatin 10 ng/mL; read-out: IC50 (Luciferase) Myostatin HepG2
T2 construct: active myostatin (also called mature myostatin) is a homodimer consisting of two C-terminal growth factor domains; purchased R&D systems 788-G8/CF
T2 sequence (O14793 267-375): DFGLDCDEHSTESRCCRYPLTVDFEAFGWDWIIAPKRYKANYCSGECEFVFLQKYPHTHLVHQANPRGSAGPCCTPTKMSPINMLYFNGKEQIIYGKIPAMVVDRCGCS
Summary of the method: as §1

[3] = system: Myostatin; assay: as above; conditions: Method A; GDF-11 IC50 versus Myostatin IC50
Summary of the method: as §1

Compound	IC50 [1] [µM]	IC50 [2] [µM]	Selectivity [3]
CC[C@H](C)[C@@H]1NC(=O)[C@H](Cc2ccccc2)N(C)C(=O)[C@H](Cc2ccc(O)cc2)NC(=O)[C@H](Cc2ccc(-c3ccncc3)cc2)NC(=O)[C@H](C)NC(=O)CN(CCCC(=O)O)C(=O)CSC[C@H](C(N)=O)NC(=O)[C@H](Cc2ccccc2)N(C)C(=O)[C@H](C)N(C)C(=O)[C@H](CC(C)C)NC(=O)[C@H](Cc2ccccc2)N(C)C(=O)[C@H](CCCNC(=N)N)NC(=O)[C@H](Cc2ccc(OCC(=O)O)cc2)NC(=O)[C@H](Cc2cccc(OCC(=O)O)c2)NC(=O)[C@H](C)N(C)C1=O [Myostatin_99_v123] ({CH2CO}-[Gly(N(CH2)3COOH)]A[Phe(4-(4-pyridyl))]Y[NMeF]I[NMeA][Phe(3-OCH2COOH)]Y(Carboxymethyl)R[NMeF]L[NMeA][NMeF][dC]-NH2; thioether N-15)	7.39	0.0381	194
CC[C@H](C)[C@@H]1NC(=O)[C@H](Cc2ccccc2)N(C)C(=O)[C@H](Cc2ccc(O)cc2)NC(=O)[C@H](Cc2c[nH]c3ccccc23)NC(=O)[C@H](C)NC(=O)CN(CCCC(=O)O)C(=O)CSC[C@H](C(=O)O)NC(=O)[C@H](Cc2ccccc2)N(C)C(=O)[C@H](C)N(C)C(=O)[C@H](CC(C)C)NC(=O)[C@H](Cc2ccccc2)N(C)C(=O)[C@H](CCCNC(=N)N)NC(=O)[C@H](Cc2ccc(OCC(=O)O)cc2)NC(=O)[C@H](Cc2cccc(OCC(=O)O)c2)NC(=O)[C@H](C)N(C)C1=O [Myostatin_99_v124] ({CH2CO}-[Gly(N(CH2)3COOH)]AWY[NMeF]I[NMeA][Phe(3-OCH2COOH)]Y(Carboxymethyl)R[NMeF]L[NMeA][NMeF][dC]-OH; thioether N-15)	2.27	0.0171	133
CC(C)C[C@@H]1NC(=O)[C@H](Cc2ccccc2)N(C)C(=O)[C@H](CCCNC(=N)N)NC(=O)[C@H](Cc2ccc(OCC(=O)O)cc2)NC(=O)[C@H](Cc2cccc(OCC(=O)O)c2)NC(=O)[C@H](C)N(C)C(=O)[C@H](C2CCCC2)NC(=O)[C@H](Cc2ccccc2)N(C)C(=O)[C@H](Cc2ccc(O)cc2)NC(=O)[C@H](Cc2ccc(-c3ccncc3)cc2)NC(=O)[C@H](C)NC(=O)CN(CCCC(=O)O)C(=O)CSC[C@H](C(=O)O)NC(=O)[C@H](Cc2ccccc2)N(C)C(=O)[C@H](C)N(C)C1=O [Myostatin_99_v135] ({CH2CO}-[Gly(N(CH2)3COOH)]A[Phe(4-(4-pyridyl))]Y[NMeF][Gly(cPent)][NMeA][Phe(3-OCH2COOH)]Y(Carboxymethyl)R[NMeF]L[NMeA][NMeF][dC]-OH; thioether N-15)	3.29	0.0226	145
CC[C@H](C)[C@@H]1NC(=O)[C@H](Cc2ccccc2)N(C)C(=O)[C@H](Cc2ccc(O)cc2)NC(=O)[C@H](Cc2c[nH]c3ccccc23)NC(=O)[C@H](C)NC(=O)CN(CCCC(=O)O)C(=O)CSC[C@H](C(=O)O)NC(=O)[C@H](Cc2ccccc2)N(C)C(=O)[C@H](C)N(C)C(=O)[C@H](CC(C)C)NC(=O)[C@H](Cc2ccccc2)N(C)C(=O)[C@H](CCCNC(=N)N)NC(=O)[C@H](Cc2ccc(C(=O)O)cc2)NC(=O)[C@H](Cc2cccc(OCC(=O)O)c2)NC(=O)[C@H](C)N(C)C1=O [Myostatin_99_v144] ({CH2CO}-[Gly(N(CH2)3COOH)]AWY[NMeF]I[NMeA][Phe(3-OCH2COOH)][Phe(4-COOH)]R[NMeF]L[NMeA][NMeF][dC]-OH; thioether N-15)	2.76	0.0163	169
CC[C@H](C)[C@@H]1NC(=O)[C@H](Cc2ccccc2)N(C)C(=O)[C@H](Cc2ccc(O)cc2)NC(=O)[C@H](Cc2c[nH]c3ccccc23)NC(=O)[C@H](C)NC(=O)CN(CCCC(=O)O)C(=O)CSC[C@H](C(=O)O)NC(=O)[C@H](Cc2ccccc2)N(C)C(=O)[C@H](C)N(C)C(=O)[C@H](CC(C)C)NC(=O)[C@H](Cc2ccccc2)N(C)C(=O)[C@H](CCCNC(=N)N)NC(=O)[C@H](Cc2ccc(C(=O)O)cc2)NC(=O)[C@H](Cc2cccc(OCC(=O)O)c2)NC(=O)CN(C)C1=O [Myostatin_99_v156] ({CH2CO}-[Gly(N(CH2)3COOH)]AWY[NMeF]I[Sar][Phe(3-OCH2COOH)][Phe(4-COOH)]R[NMeF]L[NMeA][NMeF][dC]-OH; thioether N-15)	4.81	0.069	70

Stronger by IC50 [1], values ahead:

IC50 [1] [µM]	IC50 [2] [µM]	Compound	Selectivity [3]
0.374	0.0036	CC[C@H](C)[C@@H]1NC(=O)[C@H](Cc2ccccc2)N(C)C(=O)[C@H](Cc2ccc(O)cc2)NC(=O)[C@H](Cc2ccc(-c3ccccc3)cc2)NC(=O)[C@H](C)NC(=O)[C@H](C)NC(=O)CSC[C@H](C(=O)O)NC(=O)[C@H](Cc2ccccc2)N(C)C(=O)[C@H](C)N(C)C(=O)[C@H](CC(C)C)NC(=O)[C@H](Cc2ccccc2)N(C)C(=O)[C@H](CCCNC(=N)N)NC(=O)[C@H](Cc2ccc(OCC(=O)O)cc2)NC(=O)[C@H](Cc2cccc(OCC(=O)O)c2)NC(=O)CN(C)C1=O [Myostatin_99_v108] ({CH2CO}-AA[Bip]Y[NMeF]I[Sar][Phe(3-OCH2COOH)]Y(Carboxymethyl)R[NMeF]L[NMeA][NMeF][dC]-OH; thioether N-15)	104
1.96	0.0054	CCCCC[C@@H]1NC(=O)[C@H](Cc2ccccc2)N(C)C(=O)[C@H](CCCNC(=N)N)NC(=O)[C@H](Cc2ccc(C(=O)O)cc2)NC(=O)[C@H](Cc2cccc(OCC(=O)O)c2)NC(=O)CN(C)C(=O)[C@H]([C@@H](C)CC)NC(=O)[C@H](Cc2ccc(O)cc2)N(C)C(=O)[C@H](Cc2ccc(O)cc2)NC(=O)[C@H](Cc2ccc(-c3ccccc3)cc2)NC(=O)[C@H](C)NC(=O)CN(CCCC(=O)O)C(=O)CSC[C@H](C(=O)O)NC(=O)[C@H](Cc2ccccc2)N(C)C(=O)[C@H](C)N(C)C1=O [Myostatin_99_v116] ({CH2CO}-[Gly(N(CH2)3COOH)]A[Bip]Y[NMeY]I[Sar][Phe(3-OCH2COOH)][Phe(4-COOH)]R[NMeF][Ahp(2)][NMeA][NMeF][dC]-OH; thioether N-15)	364
0.713	0.0017	CCCCCCC[C@@H]1NC(=O)[C@H](Cc2ccccc2)N(C)C(=O)[C@H](CCCNC(=N)N)NC(=O)[C@H](Cc2ccc(C(=O)O)cc2)NC(=O)[C@H](Cc2cccc(OCC(=O)O)c2)NC(=O)CN(C)C(=O)[C@H]([C@@H](C)CC)NC(=O)[C@H](Cc2ccc(O)cc2)N(C)C(=O)[C@H](Cc2ccc(O)cc2)NC(=O)[C@H](Cc2ccc(-c3ccccc3)cc2)NC(=O)[C@H](C)NC(=O)CN(CCCC(=O)O)C(=O)CSC[C@H](C(=O)O)NC(=O)[C@H](Cc2ccccc2)N(C)C(=O)[C@H](C)N(C)C1=O [Myostatin_99_v117] ({CH2CO}-[Gly(N(CH2)3COOH)]A[Bip]Y[NMeY]I[Sar][Phe(3-OCH2COOH)][Phe(4-COOH)]R[NMeF][X1][NMeA][NMeF][dC]-OH; thioether N-15)	419
0.439	0.0015	CCCCCCC[C@@H]1NC(=O)[C@H](Cc2ccccc2)N(C)C(=O)[C@H](CCCNC(=N)N)NC(=O)[C@H](Cc2ccc(C(=O)O)cc2)NC(=O)[C@H](Cc2cccc(OCC(=O)O)c2)NC(=O)[C@H](C)N(C)C(=O)[C@H]([C@@H](C)CC)NC(=O)[C@H](Cc2ccccc2)N(C)C(=O)[C@H](Cc2ccc(O)cc2)NC(=O)[C@H](Cc2c[nH]c3ncccc23)NC(=O)[C@H](C)NC(=O)CN(CCCC(=O)O)C(=O)CSC[C@H](C(=O)O)NC(=O)[C@H](Cc2ccccc2)N(C)C(=O)[C@H](C)N(C)C1=O [Myostatin_99_v148] ({CH2CO}-[Gly(N(CH2)3COOH)]A[Trp(7-aza)]Y[NMeF]I[NMeA][Phe(3-OCH2COOH)][Phe(4-COOH)]R[NMeF][X1][NMeA][NMeF][dC]-OH; thioether N-15)	293
0.395	0.0017	CCCCCCC[C@@H]1NC(=O)[C@H](Cc2ccccc2)N(C)C(=O)[C@H](CCCNC(=N)N)NC(=O)[C@H](Cc2ccc(OCC(=O)O)cc2)NC(=O)[C@H](Cc2cccc(OCC(=O)O)c2)NC(=O)[C@H](C)N(C)C(=O)[C@H]([C@@H](C)CC)NC(=O)[C@H](Cc2ccccc2)N(C)C(=O)[C@H](Cc2ccc(O)cc2)NC(=O)[C@H](Cc2c[nH]c3ccccc23)NC(=O)[C@H](C)NC(=O)CN(CCCC(=O)O)C(=O)CSC[C@H](C(=O)O)NC(=O)[C@H](Cc2ccccc2)N(C)C(=O)[C@H](C)N(C)C1=O [Myostatin_99_v150] ({CH2CO}-[Gly(N(CH2)3COOH)]AWY[NMeF]I[NMeA][Phe(3-OCH2COOH)]Y(Carboxymethyl)R[NMeF][X1][NMeA][NMeF][dC]-OH; thioether N-15)	232
0.267	0.0012	CCCCCCC[C@@H]1NC(=O)[C@H](Cc2ccccc2)N(C)C(=O)[C@H](CCCNC(=N)N)NC(=O)[C@H](Cc2ccc(OCC(=O)O)cc2)NC(=O)[C@H](Cc2cccc(OCC(=O)O)c2)NC(=O)[C@H](C)N(C)C(=O)[C@H]([C@@H](C)CC)NC(=O)[C@H](Cc2ccccc2)N(C)C(=O)[C@H](Cc2ccc(O)cc2)NC(=O)[C@H](Cc2c[nH]c3ncccc23)NC(=O)[C@H](C)NC(=O)CN(CCCC(=O)O)C(=O)CSC[C@H](C(=O)O)NC(=O)[C@H](Cc2ccccc2)N(C)C(=O)[C@H](C)N(C)C1=O [Myostatin_99_v153] ({CH2CO}-[Gly(N(CH2)3COOH)]A[Trp(7-aza)]Y[NMeF]I[NMeA][Phe(3-OCH2COOH)]Y(Carboxymethyl)R[NMeF][X1][NMeA][NMeF][dC]-OH; thioether N-15)	222
